The assay concerns collagen production induced by TGF-β (NHDF cells). Description: Inhibitory effect on collagen production induced by TGF-β, [3H] proline uptake (NHDF cells). The class given is cell-based, human. Particulars: TGF-β1 3 ng/ml; for inhibition at 1 µM / inhibition at 3 µM / inhibition at 10 µM: Homo sapiens, NHDF. The procedure:
As an index of collagen production, the uptake of [^3H] proline was measured.
Using a 96-well microplate, normal human skin derived fibroblast (NHDF, 10^4/well) or human embryonic lung fibroblast (TIG-3, 10^4/well) were cultured in a 10% fetal calf serum (FCS)-containing Dulbecco's modified Eagle medium (DMEM) for one day. After removing the culture supernatant, the cells were washed once with a 0.1% bovine serum albumin (BSA)-containing DMEM medium and then cultured in the 0.1% bovine serum albumin (BSA)-containing DMEM medium for one day. After adding each of the test compounds in each concentration (1, 3, 10 μM), the cells were cultured and, after adding TGF-β1 (3 ng/ml) and [^3H] proline (18.5 kBq/well), the cells were further cultured for additional one day.
After removing the culture supernatant, the cells were washed twice with a phosphate buffer solution (PBS) and dissolved with 0.3M NaOH and 1% sodium dodecylsulfate (SDS), and then each protein fraction was precipitated with trichloroacetic acid (TCA) After the precipitate was filtered through a glass filter (GF/B) and washed, the quantity of [^3H] proline on the glass filter was measured by a liquid scintillation counter. The number of cells was measured by a cell growth measuring kit (XTT, Roche) and the uptake of [^3H] proline was corrected by the number of cells. Inhibitory ratio was calculated as compared with the case where a difference between the uptake of [^3H] proline with or without TGF-β1.

Counter-ions that a name gives are not always drawn.

The record followed here is patent US20050014942A1, “Amide derivatives and drugs” (priority 2001, published 2005).

With `Cn1c(-c2ccccc2)c(/C=C/C(=O)NCC2CN(Cc3ccc(F)cc3)CCO2)c2ccccc21` (stereo not drawn) [Example 30, (2E)-N-{[4-(4-fluorobenzyl)morpholin-2-yl]methyl}-3-(1-methyl-2-phenyl-1H-indol-3-yl)acrylamide hydrochloride], the inhibition at 1 µM (1 μM) was 41%. Also, the inhibition at 3 µM (3 μM) was found to be 94%. Besides, the inhibition at 10 µM (10 μM) was found to be 148%.

On to `Cn1c(-c2ccccc2)c(/C=C/C(=O)N[C@@H]2c3ccccc3C[C@@H]2O)c2cc3c(cc21)OCO3` [Example 97, (2E)-N-[(1R, 2S)-2-hydroxy-2,3-dihydro-1H-inden-1-yl]-3-(1-methyl-2-phenyl-5,6-methylenedioxy-1H-indol-3-yl)acrylamide], for which, where the note is “1 μM”, the inhibition at 1 µM amounted to 37%. Besides, the inhibition at 3 µM (3 μM) is 69%.

For the compound `COc1ccc(N2CCN(C(=O)/C=C/c3c(-c4ccccc4)n(C)c4ncccc34)CC2)cc1` [Example 98, 1-[(2E)-3-(1-methyl-2-phenyl-1H-pyrrolo[2,3-b]pyridin-3-yl)prop-2-enoyl]-4-(4-methoxyphenyl)piperazine], for the setting “1 μM”, the inhibition at 1 µM is 47%. Also, the inhibition at 3 µM (3 μM) was determined as 92%.

Turning to `COc1cc2c(cc1OC)CN(C(=O)/C=C/c1c(-c3ccccc3)n(C)c3ncccc13)CC2` [Example 109, 2-[(2E)-3-(1-methyl-2-phenyl-1H-pyrrolo[2,3-b]pyridin-3-yl)prop-2-enoyl]-6,7-dimethoxy-1,2,3,4-tetrahydroisoquinoline hydrochloride], for the setting “1 μM”, the inhibition at 1 µM came to 50%. Moreover, where the note is “3 μM”, the inhibition at 3 µM is 76%. In addition, the inhibition at 10 µM (10 μM) turned out to be 135%.

As for `CN(CCC(O)c1ccccc1)C(=O)/C=C/c1c(-c2ccc(F)cc2)n(C)c2ccccc12` (stereo not drawn) [Example 110, (2E)-N-methyl-N-(3-hydroxy-3-phenylpropyl)-3-[1-methyl-2-(4-fluorophenyl)-1H-indol-3-yl]acrylamide], the inhibition at 3 µM (3 μM) came out at 66%. Further, under “10 μM”, the inhibition at 10 µM is 143%.

Regarding `COc1cccc2c(/C=C/C(=O)N(C)CCC(O)c3ccccc3)c(-c3ccccc3)n(C)c12` (stereo not drawn) [Example 111, (2E)-N-methyl-N-(3-hydroxy-3-phenylpropyl)-3-(1-methyl-2-phenyl-7-methoxy-1H-indol-3-yl)acrylamide], under “3 μM”, the inhibition at 3 µM worked out at 82%. Also, the inhibition at 10 µM (10 μM) is 168%.

Turning to `CN(CCC(O)c1ccccc1)C(=O)/C=C/c1c(-c2ccc3c(c2)OCO3)n(C)c2ccccc12` (stereo not drawn) [Example 112, (2E)-N-methyl-N-(3-hydroxy-3-phenylpropyl)-3-[1-methyl-2-(3,4-methylenedioxyphenyl)-1H-indol-3-yl]acrylamide], under “3 μM”, the inhibition at 3 µM worked out at 73%. Further, the inhibition at 10 µM (10 μM) was 143%.

On to `Cn1c(-c2ccc3c(c2)OCO3)c(/C=C/C(=O)N[C@@H]2c3ccccc3C[C@@H]2O)c2ccccc21` [Example 113, (2E)-N-[(1R,2S)-2-hydroxy-2,3-dihydro-1H-inden-1-yl]-3-[1-methyl-2-(3,4-methylenedioxyphenyl)-1H-indol-3-yl]acrylamide], for which the inhibition at 3 µM (3 μM) was 88%. For the same compound, the inhibition at 10 µM (10 μM) stood at 148%.

Regarding `CC1c2cc(O)c(O)cc2CCN1C(=O)/C=C/c1c(-c2ccc3c(c2)OCO3)n(C)c2ccccc12` (stereo not drawn) [Example 114, 2-{(2E)-3-[1-methyl-2-(3,4-methylenedioxyphenyl)-1H-indol-3-yl]prop-2-enoyl}-1-methyl-6,7-dihydroxy-1,2,3,4-tetrahydroisoquinoline], where the note is “3 μM”, the inhibition at 3 µM turned out to be 94%. The inhibition at 10 µM (10 μM) is 165%.

Regarding `COc1ccc(CCN(C)C(=O)/C=C/c2c(-c3ccc4c(c3)OCO4)n(C)c3ccccc23)cc1OC` [Example 115, (2E)-N-methyl-N-[2-(3,4-dimethoxyphenyl)ethyl]-3-[1-methyl-2-(3,4-methylenedioxyphenyl)-1H-indol-3-yl]acrylamide], the inhibition at 3 µM (3 μM) was 84%. Under “10 μM”, the inhibition at 10 µM was found to be 155%.

Consider `Cn1c(-c2ccc3c(c2)OCO3)c(/C=C/C(=O)N(CCCCO)Cc2ccccc2)c2ccccc21` [Example 116, (2E)-N-(4-hydroxybutyl)-N-benzyl-3-[1-methyl-2-(3,4-methylenedioxyphenyl)-1H-indol-3-yl]acrylamide], for which the inhibition at 3 µM (3 μM) is 76%. Further, the inhibition at 10 µM (10 μM) was 168%.

`CC1c2cc(O)c(O)cc2CCN1C(=O)/C=C/c1c(-c2ccccc2)n(C)c2cc3c(cc12)OCO3` (stereo not drawn) [Example 117, 2-{(2E)-3-[1-methyl-2-phenyl-(5,6-methylenedioxy)-1H-indol-3-yl]prop-2-enoyl}-1-methyl-6,7-dihydroxy-1,2,3,4-tetrahydroisoquinoline]: the “Inhibitory effect on collagen production induced by TGF-β (% inhibition)” value (“Inhibitory effect … (% inhibition)” for short) (3 μM) is listed as 82% and the “Inhibitory effect … (% inhibition)” value (10 μM) turned out to be 140%.

With `COc1cccc(-c2c(/C=C/C(=O)N(C)CCC(O)c3ccccc3)c3ccccc3n2C)c1` (stereo not drawn) [Example 118, (2E)-N-methyl-N-(3-hydroxy-3-phenylpropyl)-3-[1-methyl-2-(3-methoxyphenyl)-1H-indol-3-yl]acrylamide], the inhibition at 3 µM (3 μM) was found to be 81%. The inhibition at 10 µM (10 μM) turned out to be 147%.

Turning to `COc1ccc(-c2c(/C=C/C(=O)N(C)CCC(O)c3ccccc3)c3ccccc3n2C)cc1` (stereo not drawn) [Example 119, (2E)-N-methyl-N-(3-hydroxy-3-phenylpropyl)-3-[1-methyl-2-(4-methoxyphenyl)-1H-indol-3-yl]acrylamide], the inhibition at 3 µM (3 μM) was 75%. Further, the inhibition at 10 µM (10 μM) turned out to be 153%.

`CN1CCC(N(C)C(=O)/C=C/c2c(-c3ccccc3)n(C)c3ncccc23)CC1` [Example 122, (2E)-N-methyl-N-(1-methyl-piperidin-4-yl)-3-(1-methyl-2-phenyl-1H-pyrrolo[2,3-b]pyridin-3-yl)acrylamide]: the inhibition at 1 µM (1 μM) came to 20%. For the same compound, the inhibition at 3 µM (3 μM) amounted to 57%.

For the compound `COc1cc2c(cc1OC)CN(C(=O)/C=C/c1c(-c3ccccc3)n(C)c3ncc(C)cc13)CC2` [Example 123, 2-[(2E)-3-(1,5-dimethyl-2-phenyl-1H-pyrrolo[2,3-b]pyridin-3-yl)prop-2-enoyl]-6,7-dimethoxy-1,2,3,4-tetrahydroisoquinoline hydrochloride], the inhibition at 1 µM (1 μM) was determined as 55%. Under “3 μM”, the inhibition at 3 µM amounted to 125%.

In the case of `COc1cc2c(cc1OC)C(CC(=O)O)N(C(=O)/C=C/c1c(-c3ccccc3)n(C)c3ncccc13)CC2` (stereo not drawn) [Example 124, {6,7-dimethoxy-2-[(2E)-3-(1-methyl-2-phenyl-1H-pyrrolo[2,3-b]pyridin-3-yl)prop-2-enoyl]-1,2,3,4-tetrahydroisoquinolin-1-yl}acetic acid], for the setting “1 μM”, the “Inhibitory effect … (% inhibition)” value is on record as 21%. Under “3 μM”, the inhibition at 3 µM turned out to be 108%.

`CC(=O)OCCN(Cc1ccccc1)C(=O)c1cnc(N2CCN(C(=O)c3c(-c4ccccc4)n(C)c4ccc(C)cc34)CC2)cn1` [Example 125, N-benzyl-N-[(5-{4-[(1,5-dimethyl-2-phenyl-1H-indol-3-yl)carbonyl]piperazin-1-yl}pyrazin-2-yl)carbonyl]aminoethyl acetate]: where the note is “1 μM”, the inhibition at 1 µM turned out to be 52%. Further, the inhibition at 3 µM (3 μM) was found to be 91%.

As for `CCOC(=O)C1CCCC1NC(=O)/C=C/c1c(-c2ccccc2)n(C)c2ncccc12` (stereo not drawn) [Example 126, Ethyl 2-{N-[(2E)-3-(1-methyl-2-phenyl-1H-pyrrolo[2,3-b]pyridin-3-yl)prop-2-enoyl]amino}-1-cyclopentanecarboxylate], the inhibition at 1 µM (1 μM) was 29%. The inhibition at 3 µM (3 μM) worked out at 86%.

On to `CCOC(=O)C1CCCCC1NC(=O)c1cnc(N2CCN(C(=O)c3c(-c4ccccc4)n(C)c4ccc(C)cc34)CC2)cn1` (stereo not drawn) [Example 127, Ethyl 2-{N-[(5-{4-[(1,5-dimethyl-2-phenyl-1H-indol-3-yl)carbonyl]piperazin-1-yl}pyrazin-2-yl)carbonyl]amino}-1-cyclohexanecarboxylate], for which the inhibition at 1 µM (1 μM) was found to be 72%. The inhibition at 3 µM (3 μM) is 78%.

As for `COc1cc2c(cc1OC)CN(C(=O)/C=C/c1c(-c3ccccc3)n(C)c3nccnc13)CC2` [Example 128, 2-[(2E)-3-(5-methyl-6-phenyl-5H-pyrrolo[2,3-b]pyrazin-7-yl)prop-2-enoyl]-6,7-dimethoxy-1,2,3,4-tetrahydroisoquinoline hydrochloride], the inhibition at 1 µM (1 μM) was 61%. Besides, the inhibition at 3 µM (3 μM) turned out to be 76%.

Consider `CCOC(=O)C1CCCC1NC(=O)c1cnc(N2CCN(C(=O)c3c(-c4ccccc4)n(C)c4ccc(C)cc34)CC2)cn1` (stereo not drawn) [Example 129, Ethyl 2-{N-[(5-{4-[(1,5-dimethyl-2-phenyl-1H-indol-3-yl)carbonyl]piperazin-1-yl}pyrazin-2-yl)carbonyl]amino}-1-cyclopentanecarboxylate], for which the inhibition at 1 µM (1 μM) was found to be 75%. In addition, the inhibition at 3 µM (3 μM) stood at 73%.

Consider `COc1cc2c(cc1OC)CN(C(=O)/C=C/c1c(-c3ccccc3)n(C)c3cnccc13)CC2` [Example 130, 2-[(2E)-3-(1-methyl-2-phenyl-1H-pyrrolo[2,3-c]pyridin-3-yl)prop-2-enoyl]-6,7-dimethoxy-1,2,3,4-tetrahydroisoquinoline hydrochloride], for which the inhibition at 1 µM (1 μM) was 92%. In addition, the inhibition at 3 µM (3 μM) is 157%.
